Data taken from patent US20250032581A1, “COMPOSITIONS AND ARTICLES COMPRISING AN ADNF POLYPEPTIDE” (RAMOT AT TEL-AVIV UNIVERSITY LTD., priority 2021, published 2025).

How the values were obtained:
[1] = test system: differentiated N1E-115 cells expressing RFP-tagged EB3; experiment: Live imaging of EB3 comet-like structures (MT dynamics); type: cell-based, mouse
Description: Plasmid construction—Protein expressing plasmids were constructed as previously described based on pEGFP-C1 backbone and express full-length ADNP or the following truncated ADNP proteins: p.Glu830synfs*83, p.Lys408Valfs*31, p.Ser404* (as before). Inserts of cDNA carrying unique mutations were obtained from mRNA extracted from patient-derived lymphoblastoid cell lines and cDNA with full-length human ADNP was obtained from a control lymphoblastoid cell line with no mutation. Protein expressions were verified by fluorescent imaging and immunoblotting analysis as before.
Cell culture—Mouse neuroblastoma NIE-115 cells were maintained in Dulbecco's modified Eagle's medium, 10% fetal bovine serum, 2 mM glutamine and 100 U ml-1 penicillin, 100 mg ml-1 streptomycin (Biological Industries, Beit Haemek, Israel). The cells were incubated in 9 5% air/5% CO2 in a humidified incubator at 37° C.
Cell differentiation and co-transfection of overexpression plasmids—Cultured NIE-115 cells were plated on 35 mm dishes (81156, 60 p-Dish, Ibidi, Martinsried, Germany) at a concentration of 1.25×10^4 cells per dish and then were differentiated with reduced fetal bovine serum (2%) and DMSO (1.25%) containing medium for 5 days before transfection. 48 hrs before experiments N1E-115 cells were co-transfected with 1 μg EB3-RFP or mCherry-Tau (3R) plasmid with or without 2 μg of plasmids, coding to GFP conjugated to full-length human ADNP, or ADNP carried mutations. 1:3 ratios between total amount of transfected DNA and transfection reagent were used according to manufacture guidance (Lipofectamine2000, Thermo Fisher Scientific, Waltham, MA, USA) in all subsequent experiments.
Live Imaging—48 hrs after transfection, differentiated NIE-115 cells (expressing EB3-RFP with or without GFP-conjugated to full-length ADNP or mutated ADNP) were incubated at 37° C. with a 5% CO2/95% air mixture in a thermostatic chamber placed on the stage of a Leica TCS SP5 confocal microscope (objective 100× (PL Apo) oil immersion, NA 1.4). Time-lapse images were automatically captured 3 sec during 1 min, using the Leica LAS AF software. After imaging all samples were also treated with NAP (SEQ ID NO: 2) or SKIP (SEQ ID NO: 21) in final concentrations of 10^−12M, and after 4 hrs time-lapse imaging was done again under the same conditions. Data was collected and analyzed by Imaris software.
To evaluate the effect of ADNP truncated proteins on MT dynamics time-lapse imaging of EB3 comet-like structures formed by RFP-tagged EB3 proteins that bind to MT plus-ends was performed. Two parameters of EB3 activity were used to assess MT dynamics—track length and track speed of EB3 comets, which reflect the length of freshly growing MTs and the speed of MT assembly, respectively. Furthermore, the present inventors aimed to determine whether NAP ([…] for 4 hrs) could prevent the deleterious effect of ADNP mutations.

[2] = test system: Shank3-Adnp-actin interactions; experiment: Actin co-immunoprecipitations from mouse brain extracts
Description: De novo heterozygous mutations in ADNP reproduced the autistic ADNP syndrome. ADNP mutations impair microtubule (MT) function, essential for synaptic activity. The ADNP MT-associating fragment NAPVSIPQ (NAP) (SEQ ID NO 2) contains an MT end-binding protein interacting domain, SxIP (mimicking the active-peptide, SKIP, SEQ ID NO 21). The inventors hypothesized that not all ADNP mutations are similarly deleterious and that the NAPV portion of NAPVSIPQ is biologically active. Using the eukaryotic linear motif (ELM) resource, the inventors identified a Src homology 3 (SH3) domain-ligand association site in NAP responsible for controlling signaling pathways regulating the cytoskeleton, namely NAPVSIP (SEQ ID NO: 2). Altogether, the inventors mapped multiple SH3-binding sites in ADNP. […] Site-directed-mutagenesis, abolishing the p.Lys408Valfs*31 SH3-binding motif, produced MT toxicity. […] Lastly, SH3 and multiple ankyrin repeat domains protein 3 (SHANK3), a major autism gene product, interact with the cytoskeleton through an actin-binding motif to modify behavior.

[3] = adult patients; cited from earlier work

CC[C@H](C)[C@H](NC(=O)[C@H](CO)NC(=O)[C@@H](NC(=O)[C@@H]1CCCN1C(=O)[C@H](C)NC(=O)[C@@H](N)CC(N)=O)C(C)C)C(=O)N1CCC[C@H]1C(=O)N[C@@H](CCC(N)=O)C(=O)O [NAP, NAPVSIPQ]
EB3 track length and speed ([1]; 10^−12M, 4 hrs, vs. non-treated control, no significant differences between NAP and SKIP): increased EB3 track length and speed | EB3 comet speed and track length ([1]; cells expressing ADNP p.Glu830synfs*83, NAP 4 hrs): significantly augmented | EB3 comet speed and track length ([1]; cells expressing ADNP p.Ser404*, NAP 4 hrs): significantly augmented | EB3 comet track length and speed ([1]; cells expressing full-length ADNP, NAP 4 hrs): did not further influence the effect of full-length ADNP | Shank3-Adnp-actin interactions [2]: NAP-mediated normalization of Shank3-Adnp-actin interactions | efficacy in clinical studies [3]: enhancement of cognitive function and functional activities of daily living
